{"source": "patent US20120263736A1", "about": "“METHOD FOR PREDICTING AND TREATING A STERILE INFLAMMATION AND DISCRIMINATING BETWEEN STERILE AND INFECTIVE INFLAMMATION” (Beth Israel Deaconess Medical Center, Inc., priority 2009, published 2012)", "assay_type_in_all_cases": "cell-based", "key": {"[1]": {"test_system": "PMN", "settings": "for PMN chemotaxis to the agent: MTD 100 μg/ml, mtDNA 10 μg/ml, CpG DNA 10 μg/ml, LPS 1 μg/ml", "excerpt": "(§1) PMN isolation (Hauser et al., J. Leukoc. Biol. 69:63-68, 2001; Fekete et al., Shock 16:15-20, 2001), cytosolic calcium studies (Hauer et al., J. Leukoc. Biol. 69:63-68, 2001; Hauser et al., J. Trauma 48:592-598, 2000; Tarlowe et al., J. Immunol. 171:2066-2073, 2003; Grynkiewicz et al., J. Biol. Chem. 260:2440-2450, 1985), IL-8 synthesis measurement by ELISA (Zallen et al., J. Trauma 46:42-48, 1999), cell signaling by Western blots (Zhang et al., Life Sci. 77:3068-3077, 2005), transwell chemotaxis (Tarlowe et al., J. Immunol. 171:2066-2073, 2003), and video-microscopy chemotaxis assays (Chen et al., Science 314:1792-1795, 2006) were performed as previously described.\nTime-lapse video-microscopic chemotaxis was assayed as described previously (Chen et al., Science 314:1792-1795, 2006). Cells were exposed to a chemoattractant gradient field by slowly releasing MTD (˜100 μg/ml) or fMLF (10 nM) from a micropipette tip placed in proximity to the cells. The migration paths of individual cells were plotted using Adobe Illustrator. […] Experiments were repeated with multiple PMN and MTD isolates."}, "[2]": {"test_system": "human PMN", "assay": "PMN cytosolic calcium ([Ca2+]i) flux", "excerpt": "as §1\nStudy data was assessed for statistical significance using Student's (unpaired) t-test or Analysis of Variance (ANOVA) where appropriate using a SigmaStat program with post-hoc tests chosen by the computer. [Ca^2+]i transients are reported as the mean change from basal [Ca^2+]i in nanomoles per liter (nM/L). Prolonged [Ca^2+]i fluxes are reported as the area under the curve (AUC) of measured change from basal [Ca^2+]i over the observation period (nM·sec). All data are reported as mean±s.e.m. with significance accepted at p<0.05."}, "[3]": {"test_system": "human PMN", "settings": "mtDNA 100 μg/mL; preincubation with chloroquine 10 μg/mL", "method": "(§2) PMN degranulation was assessed by measuring MMP-8 release. Human PMNs were suspended in HBSS with 1.8 mM Ca^2+ at 37° C. for 10 minutes while exposed to MTD, mtDNA, or fMLF at indicated concentrations. […] After stimulation, PMN were placed on ice and centrifuged. Supernatants were then assayed for MMP-8 by Western blot. Residual PMN were lysed to assay for MAPKs.\n(§3) PMN activation was assessed by measuring MMP-8/9 degranulation and intracellular MAPK phosphorylation. Human PMN were exposed to mtDNA and nDNA at 1-100 μg/mL, 30 minutes at 37° C. After stimulation, PMN were placed on ice and centrifuged (10,000 g at 4° C. for 2 minutes) to obtain supernatants, which were then assayed for MMP-8 and MMP-9 by Western blot as described below. M-PER (Pierce, Rockford, Ill.) was then used to lyse the PMN cell pellets for determination of total and phosphorylated MAPKs by Western blot as described below. Total protein concentration of the lysates was determined by BCA assay.\n(§4) Rat liver homogenates and supernatants from human PMN or human PMN lysates were boiled for 5 minutes in SDS sample buffer. Proteins were separated by SDS-PAGE using a […] polyacrylamide gel. Tris-glycine polyacrylamide gradient gels were purchased from Novex (San Diego, Calif.). Separated proteins were transferred to nitrocellulose membrane (0.45 μm pore size; Bio-Rad, Hercules, Calif.). […]"}, "[4]": {"test_system": "human PMN", "assay": "PMN p38 and p44/42 MAPK phosphorylation (Western blot)", "settings": "chloroquine 10 μg/mL", "method": "as §2, §3, §4"}}}
{"compound": "CSCC[C@H](NC=O)C(=O)N[C@@H](CC(C)C)C(=O)N[C@@H](Cc1ccccc1)C(=O)O", "note": "[fMLF, N-formyl-methionyl-leucyl-phenylalanine]", "values": [{"measurement": "PMN chemotaxis to the agent", "setting": "[1]; fMLF 10 nM, IL-8 10 nM", "value": "shows chemotaxis"}]}
{"compound": "Nc1ncnc2c1ncn2[C@@H]1O[C@H](COP(=O)(O)OP(=O)(O)OP(=O)(O)O)[C@@H](O)[C@H]1O", "note": "[ATP]", "values": [{"measurement": "PMN [Ca2+]i mobilization", "setting": "[2]; 1 μM", "value": "mobilizes"}]}
{"compound": "CCN(CC)CCCC(C)Nc1ccnc2cc(Cl)ccc12", "note": "(stereo not drawn) [chloroquine]", "values": [{"measurement": "mtDNA-induced release of MMP-8 and -9, effect of inhibitor", "setting": "[3]", "value": "suppressed"}, {"measurement": "phosphorylation of p38 MAPK in response to mtDNA, effect of inhibitor", "setting": "[4]; mtDNA 100 μg/mL", "value": "not inhibited"}, {"measurement": "p38 MAPK responses to mtDNA, effect of inhibitor", "setting": "[4]; mtDNA 1 and 5 μg/mL, 30 minutes, 37° C.", "value": "markedly inhibited"}]}
{"compound": "C/C=C/C[C@@H](C)[C@@H](O)[C@H]1C(=O)N[C@@H](CC)C(=O)N(C)CC(=O)N(C)[C@@H](CC(C)C)C(=O)N[C@@H](C(C)C)C(=O)N(C)[C@@H](CC(C)C)C(=O)N[C@@H](C)C(=O)N[C@H](C)C(=O)N(C)[C@@H](CC(C)C)C(=O)N(C)[C@@H](CC(C)C)C(=O)N(C)[C@H](C(C)C)C(=O)N1C", "note": "[CsH, Cyclosporin H]", "values": [{"measurement": "PMN migrating to fMLF, effect of inhibitor", "setting": "[1]; CsH 1 μM, fMLF 10 nM", "value": "significantly inhibits"}, {"measurement": "PMN chemotaxis to IL-8, effect of inhibitor", "setting": "[1]; CsH, IL-8 10 nM", "value": "no effects"}, {"measurement": "FPR-induced calcium depletion", "setting": "[2]; human PMN", "value": "specifically inhibits"}]}
{"compound": "IL-8: chemokine used as chemoattractant", "values": [{"measurement": "PMN chemotaxis to the agent", "setting": "[1]; fMLF 10 nM, IL-8 10 nM", "value": "shows chemotaxis"}]}
